Laboratory results from patent US6767569B1, “Surface decontamination of cooked sausage and processed meat and poultry products” (priority 1999, dated 2004).

What was measured:
Format in all cases: cell-based
Salmonella spp. [1] = details: pork skin; 5 seconds spray; 2% lactic acid, 2% acetic acid, 0.1% peracetic acid; after 48 hours
Description: (§1) Samples of pork skin were inoculated separately with either 5 strains of E. coli or 5 strains of Salmonella spp. (mixtures X and Y, see Example 4). Five different treatments were evaluated for effectiveness in reducing bacteria on pork skin. […] EMB agar was used for E. coli and XLD for Salmonella, and a nutrient agar was also used for E. coli and Salmonella for total count.
(§2) The five strains of generic E. coli and five strains of Salmonella spp. were cultured and transferred individually into 100 mL of tryptic soy broth (TSB, DIFCO, Detroit, Mich.) with 1% dextrose (Sigma, St. Louis, Mo.) in duplicate. Dextrose was added to induce acid tolerance in the microbial cell. The cultures were incubated at 35° C. for 24 hrs. to obtain ca. 10^9 colony forming units (CFU)/mL. The cells were harvested by the centrifuging each culture at 10,000 Xg force for 10 min. at 4° C., (Beckman J2-HS centrifuge, Beckman Instruments, Inc., Palo Alto, Calif.). After centrifugation, the supernatant was poured off, and cells remained in pellet form. Each pellet was individually re-suspended with 50 mL of 0.1% peptonewater (DIFCO, Detroit, Mich.). All five strains of E. coli or Salmonella spp. inoculum were transferred to separate HDPE plastic spray bottles (Sprayco™, Detroit, Mich.) to be used in the mist inoculation of pork skin samples.
(§3) For E. coli, PCA and EMB media were used, and for Salmonella, PCA and XLD media were used. Bacto Plate Count Agar (PCA) was used in this study as a standard methods medium for the enumeration of bacteria before and after treatments. Spiral (sl), or spread (sd) plate technique were used for viable cell counts. Duplicate plates were performed for each treatment.
(§4) Fresh pork skins taken from the loin region were cut to rectangles of 19.35 cm^2. A hole was bored into the top of each sample so that each sample could be suspended from an individual hook in the spray cabinet. Samples were laid out onto trays wrapped in butcher paper. Each tray was individually spray inoculated with E. coli or Salmonella spp. in a Plexiglas spray chamber to ca. 8.4 mL of inoculum. After the inoculation, each tray was placed under a laminar flow hood for 1 hr. to allow the surface to dry and for the attachment of the bacteria to the pork skin.
(§5) The peracetic acid (PAA) used in this study was a 35.0% PAA buffered, liquid solution prepared from a STERIS 20™ two compartment cup (a dry powder containing anticorrosive additives, buffers, sequestrants, and surfactants). The peracetic acid determined before each use of the treatment using a calibration curve.
(§6) Five inoculated samples were individually placed on stainless steel hooks in. a spray cabinet at ambient temperature.
(§7) The samples were exposed to a continuous spray of the selected treatment for 5 seconds at a spray pressure of 16-18 psi.
(§8) The treated samples were placed into individual stomacher bags containing 30 mL of 0.1% peptone water (DIFCO, Detroit, Mich.) and stomached for 2 min. Serial dilutions of 0, 10^−2, and 10^−4 were spiral plated (WASP spiral plater, Bioscience International, Rockville, Md.) on PCA (DIFCO, Detroit, Mich.) and EMB (DIFCO, Detroit, Mich.) for E. coli and on plate count agar (PCA, DIFCO, Detroit, Mich.) and xylose lysine decarboxylase agar (XLD, DIFCO, Detroit, Mich.) for Salmonella spp. Samples were also spread plated on PCA and EMB agar for E. coli or PCA and XLD agar for Salmonella spp, using […] for a total of 1 mL on 4 plates. This was to ensure a countable plate. Plates were inverted and incubated at 35° C. for 24 hrs. (48 hrs. for Salmonella spp.).

E. coli [2] = details: pork skin; 5 seconds spray; 2% lactic acid, 2% acetic acid, 0.1% peracetic acid; after 24 hours
Description: as §1, §2, §3, §4, §5, §6, §7, §8

Salmonella spp. [3] = details: 35 °C, 24 hrs
Description: (§9) Each strain was subcultured on tryptic soy agar (TSA, DIFCO, Detroit, Mich.) slants and stored at 4° C. Strains were individually transferred into 100 mL of sterile 2× BHI (DIFCO, Detroit, Mich.) and incubated at 35° C. for 24 hr. to reach ca. 10^9 colony forming units/mL (CFU/mL). Then, 25 mL of each strain of E. coli was transferred into a sterile bottle (mixture X), and 25 mL of each strain of each strain of Salmonella spp. was transferred into a sterile bottle (mixture Y). Mixtures X and Y were maintained separately throughout the test.
(§10) Serial dilutions were made using Butterfields' Phosphate Buffer (BPB, Sigma, St. Louis, Mo.) in 1 mL aliquots prior to inoculation. BPB was prepared as a stock solution by adding 34 g Of KH2PO4 to 500 mL of distilled water. The pH was adjusted to 7.2, and the solution was brought to a volume of 1 L. The BPB stock was autoclaved for 20 min. at 121° C. and 15 lbs. of pressure. […] For glacial acetic acid (U.S.P.-F.C.C., J. T. Baker, Phillipsburg, N.J.), starting concentrations and serial dilutions were 50%, 25%, 12.5%, 6.25%, 3.12%, 1.56%, 0.78%, 0.39%, and a control (no treatment, buffer and culture). […] For peracetic acid 35.0% (STERIS 20™, STERIS Corporation, Mentor, Ohio), starting concentrations and serial dilutions were 17.5%, 8.75%, 4.38%, 2.19%, 1.09%, 0.55%, 0.30%, 0.14%, 0.07%, 0.03%, and a control. For liquid smoke (Hickory Specialties, Brentwood, Tenn.) starting concentrations and serial dilutions were 50%, 25%, 12.5%, 6.25%, 3.12%, 1.56%, 0.78%, 0.39%, and a control. Dilutions were prepared with deionized water.
(§11) The test tubes were incubated at 35° C. for 24 hrs. and turbidity was evaluated using McFarland equivalence standards, to study the bacteriostatic properties of the diluted solutions. In addition, each dilution was plated to evaluate the bactericidal properties of, the diluted solutions. Using a 1 μL sterile loop, each concentration and control for either microorganism mixture was streaked on plate count agar (PCA, DIFCO, Detroit, Mich.). A selective agar was also used for each mixture, eosine methylene blue agar (EMB, DIFCO, Detroit, Mich.) for E. coli and xylose lysine decarboxylase agar (XLD, DIFCO, Detroit,Mich.) for Salmonella spp. All plates were incubated for 24 hrs. at 35° C. and were inspected for growth or no growth.

E. coli [4] = tested on: E. coli
Description: as §9, §10, §11

CC(=O)O [Acetic Acid, acetic acid, reference compound]
Total Count (Salmonella) on PCA (Salmonella spp. [1]): 5.37 Log CFU/cm^2 | Total Count (Salmonella) on XLD (Salmonella spp. [1]): 4.27 Log CFU/cm^2 | Total Count (E. coli) on EMB (E. coli [2]): 4.55 Log CFU/cm^2 | Total Count (E. coli) on PCA (E. coli [2]): 4.68 Log CFU/cm^2 | MIC (%) (Salmonella spp. [3]): 0.78% | MIC (%) (E. coli [4]): 3.12%
